From patent US20060069132A1, “Azolecarboxamide herbicides” (priority 2004, published 2006)

Legend:
[1] = tested on: velvetleaf; assay: Test A pre-/postemergence herbicide test; assay type: in vivo, Abutilon theophrasti
Method in brief: (§1)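 Visual injury scores on a 0–100 scale (100 = complete control) taken about ten days post-treatment in greenhouse against untreated controls; dash means no result. Treatments: preemergence soil spray and postemergence spray to runoff on one- to two-leaf plants 2 to 10 cm tall, surfactant-containing formulation.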

[2] = tested on: soybean; assay: Test C pre-/postemergence herbicide test; assay type: in vivo, Glycine max; details: preemergence
Method in brief: (§2)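 Visual ratings on a 0–100 scale (100 = complete control) made versus untreated controls after 12 to 14 greenhouse days. Test chemicals, formulated in surfactant-containing non-phytotoxic solvent, applied preemergence to planted seeds or postemergence to 1- to 4-leaf plants (2 to 18 cm).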

[3] = tested on: giant foxtail; assay: Test C pre-/postemergence herbicide test; assay type: in vivo, Setaria faberi; details: preemergence
Method in brief: as §2

[4] = tested on: cocklebur; assay: Test C pre-/postemergence herbicide test; assay type: in vivo, Xanthium strumarium; details: for Plant response rating, Cocklebur: preemergence; for Cocklebur plant response rating: Preemergence, 500 g ai/ha, scale 0 to 100, 0 no effect, 100 complete control
Method in brief: as §2

[5] = tested on: goosegrass; assay: Test C pre-/postemergence herbicide test; assay type: in vivo, Eleusine indica; details: preemergence
Method in brief: as §2

[6] = tested on: redroot pigweed; assay: Test A pre-/postemergence herbicide test; assay type: in vivo, Amaranthus retroflexus
Method in brief: as §1

[7] = tested on: morningglory; assay: Test C pre-/postemergence herbicide test; assay type: in vivo, Ipomoea coccinea; design: key to Plant response rating, Morningglory: 0 = no effect, 100 = complete control; details: preemergence
Method in brief: as §2

[8] = tested on: kochia; assay: Test C pre-/postemergence herbicide test; assay type: in vivo, Kochia scoparia; details: preemergence
Method in brief: as §2

[9] = tested on: barnyardgrass; assay: Test C flooded paddy test; assay type: in vivo, Echinochloa crus-galli; details: for Plant response rating, Barnyardgrass: 500 g ai/ha, visual rating after 12 to 14 days
Method in brief: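 Weeds and wheat were sprayed after emergence, at a height of 2 to 18 cm (1–4 leaves), and paddy barnyardgrass was flooded and treated at two leaves. Assessment took place 12–14 days later in the greenhouse on a 0-to-100 visual control scale. A dash means no result was obtained.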

[10] = tested on: bermudagrass; assay: Test C pre-/postemergence herbicide test; assay type: in vivo, Cynodon dactylon; details: for Plant response rating, Bermudagrass: preemergence; for Bermudagrass plant response rating: Preemergence, 500 g ai/ha
Method in brief: as §2

[11] = tested on: yellow nutsedge; assay: Test C pre-/postemergence herbicide test; assay type: in vivo, Cyperus esculentus; details: preemergence
Method in brief: as §2

[12] = tested on: woolly cupgrass; assay: Test C pre-/postemergence herbicide test; assay type: in vivo, Eriochloa villosa; details: preemergence
Method in brief: as §2

[13] = tested on: velvetleaf; assay: Test C pre-/postemergence herbicide test; assay type: in vivo, Abutilon theophrasti; details: preemergence
Method in brief: as §2

[14] = tested on: corn; assay: Test C pre-/postemergence herbicide test; assay type: in vivo, Zea mays; details: preemergence
Method in brief: as §2

[15] = Postemergence, 500 g ai/ha, 0 to 100 scale, 0 no effect, 100 complete control
[16] = Postemergence, 2000 g ai/ha, 0 to 100 scale, 0 no effect, 100 complete control
[17] = Preemergence, 2000 g ai/ha, visual rating, 0 to 100 scale (0 no effect, 100 complete control)
[18] = preemergence, 500 g ai/ha, visual injury, 0 to 100 scale (0 no effect, 100 complete control)
[19] = 125 g ai/ha, scale 0 (no effect) to 100 (complete control), visual, 12 to 14 days
[20] = 500 g ai/ha, scale 0 to 100 (0 no effect, 100 complete control), visual, 12 to 14 days
[21] = 62 g ai/ha, scale 0 to 100 (0 no effect, 100 complete control)
[22] = 125 g ai/ha, scale 0 to 100 (0 no effect, 100 complete control)
[23] = 250 g ai/ha, scale of 0 to 100, 0 is no effect, 100 is complete control
[24] = scale 0 to 100 (0 no effect, 100 complete control)
[25] = 62 g ai/ha, scale 0 to 100, 0 no effect, 100 complete control
[26] = scale 0 to 100, 0 no effect, 100 complete control

## CCNC(=O)c1cccc(NC(=O)c2sc(C(C)(C)C)nc2CC)c1 [Compound 210]
[1]; [15]
  Velvetleaf plant response rating: 40
[1]; [16]
  Plant response rating, Velvetleaf: 65
[1]; [17]
  Velvetleaf plant response rating: 95
[1]; [18]
  Velvetleaf plant response rating: 70
[2]; 62 g ai/ha, scale 0 to 100
  Plant response rating, Soybean: 0
[2]; [19]
  Plant response rating, Soybean: 0
[2]; 250 g ai/ha, scale 0-100
  Plant response rating, Soybean: 0
[2]; [20]
  Plant response rating, Soybean: 0
[3]; 62 g ai/ha, scale 0 to 100
  Plant response rating, Foxtail, Giant: 0
[3]; [19]
  Plant response rating, Foxtail, Giant: 10
[3]; 250 g ai/ha, scale 0-100
  Plant response rating, Foxtail, Giant: 10
[3]; [20]
  Plant response rating, Foxtail, Giant: 60
[4]; 62 g ai/ha, scale 0 to 100
  Plant response rating, Cocklebur: 0
[4]; [19]
  Plant response rating, Cocklebur: 0
[4]; 250 g ai/ha, scale 0-100
  Plant response rating, Cocklebur: 0
[4]
  Cocklebur plant response rating: 5
[5]; 62 g ai/ha, scale 0 to 100
  Plant response rating, Goosegrass: 50
[5]; [19]
  Plant response rating, Goosegrass: 80
[5]; 250 g ai/ha, scale 0-100
  Plant response rating, Goosegrass: 95
[5]; [20]
  Plant response rating, Goosegrass: 95
[6]; [15]
  Pigweed plant response rating: 60
[6]; [16]
  Plant response rating, Pigweed: 80
[6]; [17]
  Pigweed plant response rating: 100
[6]; [18]
  Pigweed plant response rating: 100
[7]; 62 g ai/ha, scale 0 to 100
  Plant response rating, Morningglory: 0
[7]; [19]
  Plant response rating, Morningglory: 0
[7]; 250 g ai/ha, scale 0-100
  Plant response rating, Morningglory: 5
[7]; [20]
  Plant response rating, Morningglory: 10
[8]; 62 g ai/ha, scale 0 to 100
  Plant response rating, Kochia: 0
[8]; [19]
  Plant response rating, Kochia: 90
[8]; 250 g ai/ha, scale 0-100
  Plant response rating, Kochia: 90
[8]; [20]
  Plant response rating, Kochia: 95
[9]; [21]
  Barnyardgrass plant response rating: 50
[9]; [22]
  Barnyardgrass plant response rating: 70
[9]; [23]
  Barnyardgrass plant response rating: 85
[9]; [24]
  Plant response rating, Barnyardgrass: 85
[10]; [25]
  Plant response rating, Bermudagrass: 80
[10]; [19]
  Plant response rating, Bermudagrass: 80
[10]; 250 g ai/ha, scale 0-100
  Plant response rating, Bermudagrass: 100
[10]; [26]
  Bermudagrass plant response rating: 100
[11]; 62 g ai/ha, scale 0 to 100
  Plant response rating, Nutsedge, Yellow: 0
[11]; [19]
  Plant response rating, Nutsedge, Yellow: 0
[11]; 250 g ai/ha, scale 0-100
  Plant response rating, Nutsedge, Yellow: 5
[11]; [20]
  Plant response rating, Nutsedge, Yellow: 30
[12]; 62 g ai/ha, scale 0 to 100
  Plant response rating, Cupgrass, Woolly: 0
[12]; [19]
  Plant response rating, Cupgrass, Woolly: 0
[12]; 250 g ai/ha, scale 0-100
  Plant response rating, Cupgrass, Woolly: 5
[12]; [20]
  Plant response rating, Cupgrass, Woolly: 10
[13]; 62 g ai/ha, scale 0 to 100
  Plant response rating, Velvetleaf: 0
[13]; [19]
  Plant response rating, Velvetleaf: 0
[13]; 250 g ai/ha, scale 0-100
  Plant response rating, Velvetleaf: 60
[13]; [20]
  Plant response rating, Velvetleaf: 80
[14]; 62 g ai/ha, scale 0 to 100
  Plant response rating, Corn: 0
[14]; [19]
  Plant response rating, Corn: 10
[14]; 250 g ai/ha, scale 0-100
  Plant response rating, Corn: 20
[14]; [20]
  Plant response rating, Corn: 40

## CCc1nn(C(C)(C)C)cc1C(=O)Nc1cc(C(=O)N(CC)CC)ccc1F [Compound 223]
[1]; [15]
  Velvetleaf plant response rating: 40
[1]; [16]
  Plant response rating, Velvetleaf: 35
[1]; [17]
  Velvetleaf plant response rating: 85
[1]; [18]
  Velvetleaf plant response rating: 55
[2]; 62 g ai/ha, scale 0 to 100
  Plant response rating, Soybean: 0
[2]; 250 g ai/ha, scale 0-100
  Plant response rating, Soybean: 80
[2]; [20]
  Plant response rating, Soybean: 90
[3]; 62 g ai/ha, scale 0 to 100
  Plant response rating, Foxtail, Giant: 40
[3]; [19]
  Plant response rating, Foxtail, Giant: 70
[3]; 250 g ai/ha, scale 0-100
  Plant response rating, Foxtail, Giant: 100
[3]; [20]
  Plant response rating, Foxtail, Giant: 100
[4]; 62 g ai/ha, scale 0 to 100
  Plant response rating, Cocklebur: 0
[4]; [19]
  Plant response rating, Cocklebur: 0
[4]; 250 g ai/ha, scale 0-100
  Plant response rating, Cocklebur: 0
[4]
  Cocklebur plant response rating: 0
[5]; 62 g ai/ha, scale 0 to 100
  Plant response rating, Goosegrass: 60
[5]; [19]
  Plant response rating, Goosegrass: 80
[5]; 250 g ai/ha, scale 0-100
  Plant response rating, Goosegrass: 80
[5]; [20]
  Plant response rating, Goosegrass: 100
[6]; [15]
  Pigweed plant response rating: 50
[6]; [16]
  Plant response rating, Pigweed: 55
[6]; [17]
  Pigweed plant response rating: 90
[6]; [18]
  Pigweed plant response rating: 95
[7]; 62 g ai/ha, scale 0 to 100
  Plant response rating, Morningglory: 0
[7]; [19]
  Plant response rating, Morningglory: 0
[7]; 250 g ai/ha, scale 0-100
  Plant response rating, Morningglory: 5
[7]; [20]
  Plant response rating, Morningglory: 100
[8]; 62 g ai/ha, scale 0 to 100
  Plant response rating, Kochia: 85
[8]; [19]
  Plant response rating, Kochia: 90
[8]; 250 g ai/ha, scale 0-100
  Plant response rating, Kochia: 100
[8]; [20]
  Plant response rating, Kochia: 100
[9]; [21]
  Barnyardgrass plant response rating: 0
[9]; [22]
  Barnyardgrass plant response rating: 0
[9]; [23]
  Barnyardgrass plant response rating: 0
[9]; [24]
  Plant response rating, Barnyardgrass: 45
[10]; [25]
  Plant response rating, Bermudagrass: 80
[10]; [19]
  Plant response rating, Bermudagrass: 80
[10]; 250 g ai/ha, scale 0-100
  Plant response rating, Bermudagrass: 100
[10]; [26]
  Bermudagrass plant response rating: 100
[11]; 62 g ai/ha, scale 0 to 100
  Plant response rating, Nutsedge, Yellow: 0
[11]; [19]
  Plant response rating, Nutsedge, Yellow: 0
[11]; 250 g ai/ha, scale 0-100
  Plant response rating, Nutsedge, Yellow: 0
[11]; [20]
  Plant response rating, Nutsedge, Yellow: 0
[12]; 62 g ai/ha, scale 0 to 100
  Plant response rating, Cupgrass, Woolly: 0
[12]; [19]
  Plant response rating, Cupgrass, Woolly: 10
[12]; [20]
  Plant response rating, Cupgrass, Woolly: 80
[13]; 62 g ai/ha, scale 0 to 100
  Plant response rating, Velvetleaf: 0
[13]; 250 g ai/ha, scale 0-100
  Plant response rating, Velvetleaf: 100
[13]; [20]
  Plant response rating, Velvetleaf: 100
[14]; 62 g ai/ha, scale 0 to 100
  Plant response rating, Corn: 0
[14]; [19]
  Plant response rating, Corn: 0
[14]; 250 g ai/ha, scale 0-100
  Plant response rating, Corn: 5
[14]; [20]
  Plant response rating, Corn: 50
